According to PMC9412534, “Diindolylmethane Derivatives: New Selective Blockers for T-Type Calcium Channels” (Membranes, 2022):

What was measured:
[1] = target: T1, recombinant hCaV3.1 channels (Homo sapiens, UniProt O43497); assay: Whole-cell patch-clamp (QPatch), CaV3.1; format: cell-based; conditions: for IC50: whole-cell current, holding potential −90 mV, n = 3–5
T1 construct: host or cells: probably the CHO cell line expressing CaV3.1 (inferred: transient HEK293T cells are assigned to FLIPR only)
Experimental: The human embryonic kidney 293 (HEK 293) cell lines (from Emmanuel Bourinet, Montpellier, France) stably expressing CaV3.2 or CaV3.3 were cultured under 5% carbon dioxide at 37 °C in Dulbecco’s Modified Eagle Medium (DMEM) Glutamax (Gibco, Life Technologies, Carlsbad, CA, USA) supplemented with 10% (v/v) fetal bovine serum (FBS), 100 U/mL penicillin, 100 μg/mL streptomycin (Gibco, Life Technologies, Carlsbad, CA, USA), and 750 μg/mL geneticin (G418) (Gibco, Life Technologies). The Chinese Hamster Ovary (CHO) cell lines (Emmanuel Bourinet, Montpellier, France) expressing CaV3.1 were cultured under 5% carbon dioxide at 37 °C in Alpha Minimum Essential Media (MEM) Glutamax (Gibco, Life Technologies), supplemented with 10% (v/v) fetal bovine serum (FBS) and 300 μg/mL geneticin (G418) (Gibco, Life Technologies). The human neuroblastoma SH-SY5Y cells (Victor Diaz, Goettingen, Germany) were cultured under 5% carbon dioxide at 37 °C in RPMI 1640 antibiotic-free medium (Invitrogen, Carlsbad, CA, USA), supplemented with 15% FBS and 2 mM GlutaMAX™ (Invitrogen). D-PBS (Gibco, Life Technologies) was used to wash the cells, and 0.25% Trypsin-EDTA (Gibco, Life Technologies) was used to detach cells from the flask surface. They were split in a ratio of 1:5 (ideally 1000 cells/cm^2) when they reached 70–80% confluence (every 2–3 days). Transiently transfected CaV3.1 HEK293 T cells were used in FLIPR Assays. HEK 293 T cells were cultured under 5% carbon dioxide at 37 °C in DMEM supplemented with 10% (v/v) FBS. D-PBS was used to wash the cells, and 0.25% Trypsin-EDTA was used to detach cells from the flask surface. The cells were split and seeded at 6 million cells per T175 flask, to reach 70–80% confluence after 24 h. The next day, 12 μg DNA of human CaV3.1 was incubated in 900 μL serum-free DMEM with 36 μL FuGENE HD transfection reagent (Promega Corporation, Madison, WI, USA) (1:3 DNA/Fugene ratio) for 20 min, and then the mixture was added into the cell flask slowly, drop by drop. After the transfection, the cells were cultured under 5% carbon dioxide at 37 °C for 24 h and then moved to a 28 °C incubator.
Whole-cell patch-clamp experiments were performed on an automated electrophysiology platform QPatch 16 X (Sophion Bioscience A/S, Ballerup, Denmark) in single-hole configuration using 16-channel planar patch chip QPlates (Sophion Bioscience A/S). The extracellular recording solution contained, in mM: TEACl 157, MgCl2 0.5, CaCl2 5, and HEPES 10; pH 7.4 adjusted with TEAOH; and osmolarity 320 mOsm. The intracellular pipette solution contained, in mM: CsF 140, EGTA 1, HEPES 10, and NaCl 10; pH 7.2 adjusted with CsOH; and osmolarity 325 mOsm. Compounds were diluted in extracellular recording solution with 0.1% BSA at the concentrations stated (DMSO ≤ 0.1%), and the effects of compounds were compared to the control (extracellular solution with 0.1% BSA) parameters within the same cell. Compounds’ incubation time varied from two (for the highest concentration) to five (for the lowest concentration) minutes by applying the voltage protocol 10–30 times at 10 s intervals to ensure steady-state inhibition was achieved. The effects of compounds were obtained using 200 ms voltage steps to peak potential from a holding potential of −90 mV. Current–voltage (I–V) relationships were obtained by holding the cells at a potential of −100 mV before applying 50 ms pulses to potentials from −75 to +50 mV every 5 s in 5 mV increments. […]

HT-29 cells = assay: Cell viability MTT assay, HT-29; format: cell-based, human; conditions: for viability at 50 µM: HT-29, 50 µM, n = 4; for IC50: n = 3; for preferential anti-proliferative activity on HT-29: versus MCF-7, T-47D, A549
Experimental: Human breast cancer cell line MCF-7 and T-47D, lung cancer cell line A549, and colon cancer cell line HT-29 were cultured under 5% carbon dioxide at 37 °C in DMEM Glutamax (Gibco, Life Technologies) supplemented with 10% (v/v) FBS. They were split in a ratio of 1:3–1:6 (ideally 2–4 × 10,000 cells/cm^2) when they reached 70–80% confluence using 0.25% Trypsin-EDTA. For cell viability MTT assay, cells were seeded into 96-well clear bottom culture plates (Corning, Lowell, MA, USA) at a density of 5 × 10^3 cells/well and settled at 37 °C for 24 h.
Seeded cells were treated with various concentrations of compounds for desired time period (24, 48 and 72 h). After the treatments, the media were removed from each well, and replaced with 25 μL of serum-free media and 25 μL of MTT Reagent (cat. no., ab211091; Abcam, Cambridge, MA, USA). The plate was then incubated at 37 °C for 3 h, and 75 μL of MTT Solvent (cat. no., ab211091; Abcam) was added into each well after incubation. The absorbance was evaluated at 590 nm. Cell-wells treated with 0.1% DMSO were used as positive control and no cell-wells were used as background control.

[2] = Homo sapiens, HT-29, 72 h, 72 h treatment

T1 sequence (O43497 whole entry): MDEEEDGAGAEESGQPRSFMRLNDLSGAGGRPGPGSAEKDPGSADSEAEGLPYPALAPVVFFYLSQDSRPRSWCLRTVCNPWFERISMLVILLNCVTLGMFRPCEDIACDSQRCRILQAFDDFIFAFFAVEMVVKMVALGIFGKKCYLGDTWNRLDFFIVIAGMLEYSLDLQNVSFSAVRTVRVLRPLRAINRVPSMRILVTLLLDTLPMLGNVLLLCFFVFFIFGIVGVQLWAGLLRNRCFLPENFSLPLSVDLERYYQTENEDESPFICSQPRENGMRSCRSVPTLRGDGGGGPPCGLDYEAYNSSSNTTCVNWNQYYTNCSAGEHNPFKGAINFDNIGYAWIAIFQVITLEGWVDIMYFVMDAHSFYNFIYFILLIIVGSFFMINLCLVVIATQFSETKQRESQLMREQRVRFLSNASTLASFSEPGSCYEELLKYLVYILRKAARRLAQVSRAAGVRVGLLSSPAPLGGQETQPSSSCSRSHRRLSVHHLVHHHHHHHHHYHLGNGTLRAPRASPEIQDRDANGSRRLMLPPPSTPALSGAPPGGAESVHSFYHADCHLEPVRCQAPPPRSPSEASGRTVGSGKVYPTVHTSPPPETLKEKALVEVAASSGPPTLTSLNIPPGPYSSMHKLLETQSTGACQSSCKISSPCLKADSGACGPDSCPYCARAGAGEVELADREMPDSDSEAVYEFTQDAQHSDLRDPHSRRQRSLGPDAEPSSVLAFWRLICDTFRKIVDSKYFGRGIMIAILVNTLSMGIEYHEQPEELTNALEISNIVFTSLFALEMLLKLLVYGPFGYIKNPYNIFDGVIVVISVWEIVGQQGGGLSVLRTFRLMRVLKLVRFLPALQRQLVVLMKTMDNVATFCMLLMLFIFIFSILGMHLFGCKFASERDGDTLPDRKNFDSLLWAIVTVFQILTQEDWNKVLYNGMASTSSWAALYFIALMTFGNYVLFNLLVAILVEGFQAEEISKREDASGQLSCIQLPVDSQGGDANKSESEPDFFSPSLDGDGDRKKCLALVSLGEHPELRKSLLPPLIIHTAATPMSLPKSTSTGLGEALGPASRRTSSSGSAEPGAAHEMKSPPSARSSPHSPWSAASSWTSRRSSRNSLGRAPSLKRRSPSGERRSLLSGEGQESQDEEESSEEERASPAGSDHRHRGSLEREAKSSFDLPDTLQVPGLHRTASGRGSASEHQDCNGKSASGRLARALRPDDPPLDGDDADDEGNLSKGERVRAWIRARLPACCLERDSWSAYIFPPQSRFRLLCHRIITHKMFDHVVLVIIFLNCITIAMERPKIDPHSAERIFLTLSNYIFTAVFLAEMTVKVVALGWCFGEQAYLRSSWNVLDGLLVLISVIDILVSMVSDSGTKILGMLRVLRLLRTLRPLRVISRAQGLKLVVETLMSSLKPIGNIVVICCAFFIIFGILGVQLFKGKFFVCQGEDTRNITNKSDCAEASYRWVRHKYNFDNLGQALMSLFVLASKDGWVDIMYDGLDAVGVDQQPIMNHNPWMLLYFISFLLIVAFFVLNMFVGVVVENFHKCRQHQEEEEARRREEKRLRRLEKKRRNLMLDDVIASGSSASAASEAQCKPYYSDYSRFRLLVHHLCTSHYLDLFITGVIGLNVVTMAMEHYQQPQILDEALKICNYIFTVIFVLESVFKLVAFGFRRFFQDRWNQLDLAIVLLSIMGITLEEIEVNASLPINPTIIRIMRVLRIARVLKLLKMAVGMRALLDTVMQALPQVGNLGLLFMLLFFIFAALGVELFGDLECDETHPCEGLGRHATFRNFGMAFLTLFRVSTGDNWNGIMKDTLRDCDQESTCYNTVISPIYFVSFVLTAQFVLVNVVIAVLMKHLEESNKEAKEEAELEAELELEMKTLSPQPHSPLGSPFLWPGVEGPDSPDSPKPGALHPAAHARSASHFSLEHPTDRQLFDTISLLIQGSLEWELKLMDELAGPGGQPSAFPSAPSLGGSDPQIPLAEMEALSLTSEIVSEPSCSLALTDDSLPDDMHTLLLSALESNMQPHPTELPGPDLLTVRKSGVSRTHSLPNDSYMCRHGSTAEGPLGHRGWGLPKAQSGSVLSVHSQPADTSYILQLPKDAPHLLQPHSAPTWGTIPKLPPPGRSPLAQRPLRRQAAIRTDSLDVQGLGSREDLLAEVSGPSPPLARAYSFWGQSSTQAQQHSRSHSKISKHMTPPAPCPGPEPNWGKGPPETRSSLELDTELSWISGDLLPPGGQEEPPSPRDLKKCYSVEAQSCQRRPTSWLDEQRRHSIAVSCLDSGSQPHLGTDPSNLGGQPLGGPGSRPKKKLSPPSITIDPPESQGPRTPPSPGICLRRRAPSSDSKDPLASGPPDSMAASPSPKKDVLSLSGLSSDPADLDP

Row | effect of low concentrations on CaV3.1 channel current ([1]; QPatch, 49 nM–3.1 µM) | shift in the I–V relationship of CaV3.1 ([1]; QPatch, 2.5 µM and 15 µM) | IC50 [1] | IC50 (HT-29 cells; [2]) | IC50 (HT-29 cells; 72 h treatment) | IC50 (HT-29 cells; Homo sapiens, HT-29, 24 h, 24 h treatment) | IC50 (HT-29 cells; Homo sapiens, HT-29, 48 h, 48 h treatment) | SMILES | viability at 50 µM (HT-29 cells; Homo sapiens, 72 h treatment) | better antiproliferative effect on HT-29 cell viability than on the other three cancer cell lines (HT-29 cells; 72 h treatment) | preferential anti-proliferative activity on HT-29 (HT-29 cells) | improved potency on HT-29 cell viability compared with the other three compounds (HT-29 cells; 72 h treatment)
1 | weakly enhanced | not accompanied by shifts | 8.32 ± 1.53 µM | 33 µM | – | – | – | c1ccc2c(Cc3c[nH]c4ccccc34)c[nH]c2c1 [DIM, 3,3′-diindolylmethane, reference compound] | 25.3 ± 2.44% | – | – | –
2 | – | – | 1.53 µM | 20 µM | – | – | – | O=C(c1c[nH]c2ccccc12)c1c[nH]c2ccccc12 [DIM-one, 3,3′-diindolylmethanone] | 5.95 ± 0.19% | ≥ 2 fold | preferential anti-proliferative activity | –
3 | – | – | – | 1 µM | 1.2 µM | 5.9 µM | 1.6 µM | O=C(c1c[nH]c2cc(Br)ccc12)c1c[nH]c2cc(Br)ccc12 [IV] | 0.85 ± 0.21% | ~ 3 fold | preferential anti-proliferative activity | > 10 fold

Row | SMILES | effect of low concentrations on CaV3.1 channel current ([1]; QPatch, 49 nM–3.1 µM) | shift in the I–V relationship of CaV3.1 ([1]; QPatch, 2.5 µM and 15 µM) | IC50 [1] | IC50 (HT-29 cells; [2]) | IC50 (HT-29 cells; 72 h treatment) | IC50 (HT-29 cells; Homo sapiens, HT-29, 24 h, 24 h treatment) | IC50 (HT-29 cells; Homo sapiens, HT-29, 48 h, 48 h treatment) | viability at 50 µM (HT-29 cells; Homo sapiens, 72 h treatment) | better antiproliferative effect on HT-29 cell viability than on the other three cancer cell lines (HT-29 cells; 72 h treatment) | preferential anti-proliferative activity on HT-29 (HT-29 cells) | improved potency on HT-29 cell viability compared with the other three compounds (HT-29 cells; 72 h treatment)
4 | O=C(c1cn(Cc2ccccc2)c2ccccc12)c1cn(Cc2ccccc2)c2ccccc12 [IX, bis(1-benzyl-1H-indol-3-yl)methanone] | – | – | 47.4 ± 11.7 µM | – | – | – | – | – | – | – | –
